Data: the supplement of paper PMC10307832

Key:
Test in all cases: relative viability (nuclei count vs DMSO), 5 days (fraction); higher = more cells survive
[1] = compound: COc1cc2ncn(-c3cc(OCc4ccccc4C(F)(F)F)c(C(N)=O)s3)c2cc1OC + O=C(CCCCCCC(=O)Nc1ccccc1)NO [Vorinostat] (partner 1 µM)
Method in brief: (§1)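 Relative viability was taken as the ratio of nuclei in treated wells to nuclei in vehicle wells. Lung cancer cell lines in 1536-well plates received compounds by pin tool one day after seeding, either one drug alone or a fixed anchor-drug dose plus five library-drug doses (not always all listed) in √10 steps. Nuclei were counted on 4× images after 5 days of treatment, and values are medians of duplicate plates.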

[2] = compound: COc1cc2ncn(-c3cc(OCc4ccccc4C(F)(F)F)c(C(N)=O)s3)c2cc1OC + C[C@]1(O)C[C@@H](c2nc(-c3ccc4ccc(-c5ccccc5)nc4c3)c3c(N)nccn32)C1 [Linsitinib] (partner 1 µM)
Method in brief: as §1

[3] = compound: COc1cc2ncn(-c3cc(OCc4ccccc4C(F)(F)F)c(C(N)=O)s3)c2cc1OC + CC1(C)CCC(c2ccc(Cl)cc2)=C(CN2CCN(c3ccc(C(=O)NS(=O)(=O)c4ccc(N[C@H](CCN5CCOCC5)CSc5ccccc5)c(S(=O)(=O)C(F)(F)F)c4)cc3)CC2)C1 [Navitoclax] (partner 0.5 µM)
Method in brief: as §1

[4] = compound: COc1cc2ncn(-c3cc(OCc4ccccc4C(F)(F)F)c(C(N)=O)s3)c2cc1OC + Cc1nc(NC(=O)N2CCC[C@H]2C(N)=O)sc1-c1ccnc(C(C)(C)C(F)(F)F)c1 [Alpelisib] (partner 2 µM)
Method in brief: as §1

Row | Cell Line | relative viability ([1]; first compound 0.05 µM) | relative viability ([1]; first compound 0.1581 µM) | relative viability ([1]; first compound 0.5 µM) | relative viability ([1]; first compound 1.581 µM) | relative viability ([1]; first compound 5 µM) | relative viability ([2]; first compound 0.05 µM) | relative viability ([2]; first compound 0.1581 µM) | relative viability ([2]; first compound 0.5 µM) | relative viability ([2]; first compound 1.581 µM) | relative viability ([2]; first compound 5 µM) | relative viability ([3]; first compound 0.05 µM) | relative viability ([3]; first compound 0.1581 µM) | relative viability ([3]; first compound 0.5 µM) | relative viability ([3]; first compound 1.581 µM) | relative viability ([3]; first compound 5 µM) | relative viability ([4]; first compound 0.05 µM) | relative viability ([4]; first compound 0.1581 µM) | relative viability ([4]; first compound 0.5 µM) | relative viability ([4]; first compound 1.581 µM) | relative viability ([4]; first compound 5 µM)
1 | UMC-11 | 0.283 | 0.22 | 0.136 | 0.131 | 0.104 | 0.962 | 0.912 | 0.274 | 0.152 | 0.136 | 0.312 | 0.269 | 0.113 | 0.0962 | 0.094 | 0.872 | 0.928 | 0.128 | 0.106 | 0.101
2 | LU99A | 0.445 | 0.401 | 0.196 | 0.123 | 0.115 | 0.502 | 0.522 | 0.224 | 0.212 | 0.161 | 0.87 | 0.786 | 0.434 | 0.169 | 0.124 | 0.488 | 0.495 | 0.36 | 0.189 | 0.167
3 | A-427 | 0.88 | 0.947 | 0.684 | 0.194 | 0.154 | 1.14 | 1.15 | 1.03 | 0.566 | 0.179 | 1.06 | 0.991 | 0.79 | 0.331 | 0.173 | 1.01 | 1.13 | 1 | 0.486 | 0.161
4 | COR-L 105 | 0.728 | 0.854 | 0.815 | 0.304 | 0.254 | 1.13 | 0.935 | 0.713 | 0.42 | 0.306 | 0.837 | 0.779 | 0.509 | 0.259 | 0.24 | 1.13 | 0.913 | 0.857 | 0.34 | 0.258
5 | NCI-H441 | 0.446 | 0.827 | 0.195 | 0.174 | 0.19 | 0.395 | 0.315 | 0.205 | 0.152 | 0.149 | 0.623 | 0.405 | 0.233 | 0.151 | 0.164 | 0.771 | 0.506 | 0.161 | 0.177 | 0.156
6 | NCI-H2126 | 0.847 | 0.759 | 0.401 | 0.236 | 0.216 | 0.721 | 0.772 | 0.587 | 0.292 | 0.264 | 0.856 | 0.834 | 0.662 | 0.284 | 0.225 | 0.731 | 0.803 | 0.668 | 0.293 | 0.234
7 | HCC-44 | 1.14 | 1.03 | 0.852 | 0.331 | 0.247 | 0.773 | 0.621 | 0.55 | 0.141 | 0.109 | 1 | 0.913 | 0.187 | 0.121 | 0.0869 | 0.908 | 0.76 | 0.503 | 0.13 | 0.0819
8 | NCI-H460 | 0.745 | 0.723 | 0.0471 | 0.0166 | 0.0169 | 0.836 | 0.832 | 0.0599 | 0.0112 | 0.0063 | 1.01 | 0.917 | 0.144 | 0.0132 | 0.0107 | 0.51 | 0.537 | 0.0496 | 0.0115 | 0.0095
9 | SW 1573 | 0.834 | 0.691 | 0.219 | 0.142 | 0.0957 | 0.733 | 0.869 | 0.514 | 0.173 | 0.275 | 1.06 | 1.09 | 0.466 | 0.115 | 0.0609 | 0.828 | 0.669 | 0.629 | 0.326 | 0.182
10 | NCI-H322M | 0.933 | 0.914 | 0.78 | 0.522 | 0.428 | 0.893 | 0.856 | 0.748 | 0.401 | 0.408 | 1.24 | 1.1 | 0.863 | 0.549 | 0.629 | 0.797 | 0.847 | 0.687 | 0.426 | 0.336
11 | EKVX | 0.745 | 0.836 | 0.477 | 0.363 | 0.167 | 1.06 | 1.07 | 0.858 | 0.214 | 0.42 | 0.96 | 0.814 | 0.91 | 0.35 | 0.486 | 0.889 | 0.982 | 0.834 | 0.21 | 0.215
12 | NCI-H1734 | 0.776 | 0.902 | 0.365 | 0.202 | 0.137 | 0.946 | 0.956 | 0.644 | 0.309 | 0.215 | 0.824 | 0.806 | 0.35 | 0.133 | 0.0981 | 0.784 | 0.721 | 0.571 | 0.334 | 0.224
13 | NCI-H520 | 0.343 | 0.621 | 0.215 | 0.179 | 0.183 | 0.964 | 0.957 | 0.477 | 0.166 | 0.154 | 1.04 | 1.18 | 0.454 | 0.201 | 0.162 | 1.08 | 0.882 | 0.508 | 0.186 | 0.158
14 | EPLC-272H | 0.175 | 0.181 | 0.0719 | 0.077 | 0.12 | 1.12 | 1.15 | 0.533 | 0.11 | 0.11 | 1.12 | 0.982 | 0.255 | 0.0998 | 0.0968 | 0.9 | 0.869 | 0.402 | 0.126 | 0.129
15 | NCI-H596 | 0.598 | 0.405 | 0.515 | 0.246 | 0.162 | 1.08 | 1.1 | 0.87 | 0.655 | 0.351 | 0.782 | 0.869 | 0.58 | 0.262 | 0.16 | 0.496 | 0.514 | 0.35 | 0.29 | 0.23
16 | NCI-H1993 | 0.725 | 0.736 | 0.384 | 0.389 | 0.348 | 0.835 | 0.782 | 0.572 | 0.56 | 0.528 | 1.22 | 0.912 | 0.602 | 0.507 | 0.503 | 0.662 | 0.674 | 0.605 | 0.519 | 0.517
